Measurements as given in patent publication US20100267561A1, “HERBICIDAL PYRIDAZINONE DERIVATIVES” (priority 2007, published 2010).

What was measured:
Assay type in all cases: in vivo
[1] = system: barnyardgrass (Echinochloa crus-galli); assay: Test A pre-/postemergence plant response
Excerpt: (§1) Seeds of species selected from barnyardgrass (Echinochloa crus-galli), large crabgrass (Digitaria sanguinalis), giant foxtail (Setaria faberi), blackgrass (Alopecurus myosuroides), canarygrass (Phalaris minor), morningglory (Ipomoea coccinea), pigweed (Amaranthus retroflexus), velvetleaf (Abutilon theophrasti), wheat (Triticum aestivum), and corn (Zea mays) were planted into a blend of loam soil and sand and treated preemergence with a directed soil spray using test chemicals formulated in a non-phytotoxic solvent mixture which included a surfactant. At the same time these species were also treated with postemergence applications of test chemicals formulated in the same manner.
(§2) Plants ranged in height from 2 to 10 cm and were in the one- to two-leaf stage for the postemergence treatment. Treated plants and untreated controls were maintained in a greenhouse for approximately 10 days, after which time all treated plants were compared to untreated controls and visually evaluated for injury. Plant response ratings, summarized in Table A, are based on a 0 to 100 scale where 0 is no effect and 100 is complete control. A dash (-) response means no test results.

corn (Zea mays) = assay: Test A pre-/postemergence plant response
Excerpt: as §1, §2

[2] = system: giant foxtail (Setaria faberi); assay: Test A pre-/postemergence plant response
Excerpt: as §1, §2

[3] = system: large crabgrass (Digitaria sanguinalis); assay: Test A pre-/postemergence plant response
Excerpt: as §1, §2

[4] = system: morningglory (Ipomoea coccinea); assay: Test A pre-/postemergence plant response
Excerpt: as §1, §2

[5] = system: pigweed (Amaranthus retroflexus); assay: Test A pre-/postemergence plant response
Excerpt: as §1, §2

[6] = system: velvetleaf (Abutilon theophrasti); assay: Test A pre-/postemergence plant response
Excerpt: as §1, §2

[7] = system: wheat (Triticum aestivum); assay: Test A pre-/postemergence plant response
Excerpt: as §1, §2

[8] = system: barnyardgrass (Echinochloa crus-galli); assay: Test B flooded paddy test plant response
Excerpt: (§3) Plant species in the flooded paddy test consisted of rice (Oryza sativa), umbrella sedge (Cyperus difformis), ducksalad (Heteranthera limosa) and barnyardgrass (Echinochloa crus-galli) grown to the 2-leaf stage for testing. At time of treatment, test pots were flooded to 3 cm above the soil surface, treated by application of test compounds directly to the paddy water, and then maintained at that water depth for the duration of the test. Treated plants and controls were maintained in a greenhouse for 13 to 15 days, after which time all species were compared to controls and visually evaluated. Plant response ratings, summarized in Table B, are based on a scale of 0 to 100 where 0 is no effect and 100 is complete control. A dash (-) response means no test result.

[9] = system: ducksalad (Heteranthera limosa); assay: Test B flooded paddy test plant response
Excerpt: as §3

rice (Oryza sativa) = assay: Test B flooded paddy test plant response
Excerpt: as §3

[10] = system: umbrella sedge (Cyperus difformis); assay: Test B flooded paddy test plant response
Excerpt: as §3

[11] = Postemergence, 125 g ai/ha, 0 to 100 scale, 0 no effect, 100 complete control
[12] = Postemergence, 500 g ai/ha, 0 to 100 scale, 0 no effect, 100 complete control
[13] = Preemergence, 125 g ai/ha, 0 to 100 scale (0 no effect, 100 complete control)
[14] = Preemergence, 500 g ai/ha, 0 to 100 scale (0 no effect, 100 complete control)
[15] = Flood (flooded paddy test), 62 g ai/ha, scale 0 to 100, 0 no effect, 100 complete control
[16] = Flood (flooded paddy test), 125 g ai/ha, scale 0 to 100, 0 no effect, 100 complete control
[17] = Flood (flooded paddy test), 250 g ai/ha, scale 0 to 100, 0 no effect, 100 complete control
[18] = Flood, 31 g ai/ha, scale 0 to 100

Cc1cc(-c2ccc(OC(F)(F)F)cc2)nn1-c1c(OC(=O)OC(C)C)cnn(C)c1=O [Compound 13]
Plant response rating, Barnyardgrass [1, 11]: 50
Plant response rating, Barnyardgrass [1, 12]: 90
Plant response rating, Barnyardgrass [1, 13]: 60
Plant response rating, Barnyardgrass [1, 14]: 100
Plant response rating, Corn (corn (Zea mays); [11]): 30
Plant response rating, Corn (corn (Zea mays); [12]): 60
Plant response rating, Corn (corn (Zea mays); [13]): 20
Plant response rating, Corn (corn (Zea mays); [14]): 70
Plant response rating, Foxtail, Giant [2, 11]: 70
Plant response rating, Foxtail, Giant [2, 12]: 80
Plant response rating, Foxtail, Giant [2, 13]: 70
Plant response rating, Foxtail, Giant [2, 14]: 100
Plant response rating, Crabgrass, Large [3, 11]: 20
Plant response rating, Crabgrass, Large [3, 12]: 80
Plant response rating, Crabgrass, Large [3, 13]: 60
Plant response rating, Crabgrass, Large [3, 14]: 90
Plant response rating, Morningglory [4, 11]: 0
Plant response rating, Morningglory [4, 12]: 0
Plant response rating, Morningglory [4, 13]: 0
Plant response rating, Morningglory [4, 14]: 0
Plant response rating, Pigweed [5, 11]: 0
Plant response rating, Pigweed [5, 12]: 0
Plant response rating, Pigweed [5, 13]: 0
Plant response rating, Pigweed [5, 14]: 0
Plant response rating, Velvetleaf [6, 11]: 0
Plant response rating, Velvetleaf [6, 12]: 0
Plant response rating, Velvetleaf [6, 13]: 0
Plant response rating, Velvetleaf [6, 14]: 20
Plant response rating, Wheat [7, 11]: 50
Plant response rating, Wheat [7, 12]: 60
Plant response rating, Wheat [7, 13]: 20
Plant response rating, Wheat [7, 14]: 70
Plant response rating, Barnyardgrass [8, 15]: 0
Plant response rating, Barnyardgrass [8, 16]: 0
Plant response rating, Barnyardgrass [8, 17]: 0
Plant response rating, Barnyardgrass [8, 18]: 0
Plant response rating, Ducksalad [9, 15]: 0
Plant response rating, Ducksalad [9, 16]: 0
Plant response rating, Ducksalad [9, 17]: 0
Plant response rating, Ducksalad [9, 18]: 0
Plant response rating, Rice (rice (Oryza sativa); [15]): 0
Plant response rating, Rice (rice (Oryza sativa); [16]): 0
Plant response rating, Rice (rice (Oryza sativa); [17]): 0
Plant response rating, Rice (rice (Oryza sativa); [18]): 0
Plant response rating, Sedge, Umbrella [10, 15]: 0
Plant response rating, Sedge, Umbrella [10, 16]: 0
Plant response rating, Sedge, Umbrella [10, 17]: 0
Plant response rating, Sedge, Umbrella [10, 18]: 0

Cc1nn(-c2ccc(Cl)cc2)cc1-c1c(O)cnn(C)c1=O [Compound 29]
Plant response rating, Barnyardgrass [1, 11]: 10
Plant response rating, Barnyardgrass [1, 12]: 50
Plant response rating, Barnyardgrass [1, 13]: 0
Plant response rating, Barnyardgrass [1, 14]: 70
Plant response rating, Corn (corn (Zea mays); [11]): 0
Plant response rating, Corn (corn (Zea mays); [12]): 0
Plant response rating, Corn (corn (Zea mays); [13]): 0
Plant response rating, Corn (corn (Zea mays); [14]): 0
Plant response rating, Foxtail, Giant [2, 11]: 0
Plant response rating, Foxtail, Giant [2, 12]: 80
Plant response rating, Foxtail, Giant [2, 13]: 60
Plant response rating, Foxtail, Giant [2, 14]: 100
Plant response rating, Crabgrass, Large [3, 11]: 0
Plant response rating, Crabgrass, Large [3, 12]: 50
Plant response rating, Crabgrass, Large [3, 13]: 0
Plant response rating, Crabgrass, Large [3, 14]: 40
Plant response rating, Morningglory [4, 11]: 0
Plant response rating, Morningglory [4, 12]: 0
Plant response rating, Morningglory [4, 13]: 0
Plant response rating, Morningglory [4, 14]: 0
Plant response rating, Pigweed [5, 11]: 0
Plant response rating, Pigweed [5, 12]: 0
Plant response rating, Pigweed [5, 13]: 0
Plant response rating, Pigweed [5, 14]: 0
Plant response rating, Velvetleaf [6, 11]: 0
Plant response rating, Velvetleaf [6, 12]: 0
Plant response rating, Velvetleaf [6, 13]: 0
Plant response rating, Velvetleaf [6, 14]: 0
Plant response rating, Wheat [7, 11]: 0
Plant response rating, Wheat [7, 12]: 20
Plant response rating, Wheat [7, 13]: 0
Plant response rating, Wheat [7, 14]: 0
Plant response rating, Barnyardgrass [8, 15]: 0
Plant response rating, Barnyardgrass [8, 16]: 0
Plant response rating, Barnyardgrass [8, 17]: 0
Plant response rating, Barnyardgrass [8, 18]: 0
Plant response rating, Ducksalad [9, 15]: 0
Plant response rating, Ducksalad [9, 16]: 0
Plant response rating, Ducksalad [9, 17]: 0
Plant response rating, Ducksalad [9, 18]: 0
Plant response rating, Rice (rice (Oryza sativa); [15]): 0
Plant response rating, Rice (rice (Oryza sativa); [16]): 0
Plant response rating, Rice (rice (Oryza sativa); [17]): 0
Plant response rating, Rice (rice (Oryza sativa); [18]): 0
Plant response rating, Sedge, Umbrella [10, 15]: 0
Plant response rating, Sedge, Umbrella [10, 16]: 0
Plant response rating, Sedge, Umbrella [10, 17]: 0
Plant response rating, Sedge, Umbrella [10, 18]: 0

COc1ccc(-c2cc(C)n(-c3c(O)cnn(C)c3=O)n2)cc1 [Compound 62]
Plant response rating, Barnyardgrass [1, 11]: 40
Plant response rating, Barnyardgrass [1, 12]: 100
Plant response rating, Barnyardgrass [1, 13]: 10
Plant response rating, Barnyardgrass [1, 14]: 90
Plant response rating, Corn (corn (Zea mays); [11]): 0
Plant response rating, Corn (corn (Zea mays); [12]): 40
Plant response rating, Corn (corn (Zea mays); [13]): 0
Plant response rating, Corn (corn (Zea mays); [14]): 20
Plant response rating, Foxtail, Giant [2, 11]: 40
Plant response rating, Foxtail, Giant [2, 12]: 60
Plant response rating, Foxtail, Giant [2, 13]: 0
Plant response rating, Foxtail, Giant [2, 14]: 30
Plant response rating, Crabgrass, Large [3, 11]: 50
Plant response rating, Crabgrass, Large [3, 12]: 90
Plant response rating, Crabgrass, Large [3, 13]: 20
Plant response rating, Crabgrass, Large [3, 14]: 60
Plant response rating, Morningglory [4, 11]: 0
Plant response rating, Morningglory [4, 12]: 0
Plant response rating, Morningglory [4, 13]: 0
Plant response rating, Morningglory [4, 14]: 0
Plant response rating, Pigweed [5, 11]: 0
Plant response rating, Pigweed [5, 12]: 0
Plant response rating, Pigweed [5, 13]: 0
Plant response rating, Pigweed [5, 14]: 0
Plant response rating, Velvetleaf [6, 11]: 0
Plant response rating, Velvetleaf [6, 12]: 0
Plant response rating, Velvetleaf [6, 13]: 0
Plant response rating, Velvetleaf [6, 14]: 0
Plant response rating, Wheat [7, 11]: 0
Plant response rating, Wheat [7, 12]: 20
Plant response rating, Wheat [7, 13]: 0
Plant response rating, Wheat [7, 14]: 0
Plant response rating, Barnyardgrass [8, 15]: 0
Plant response rating, Barnyardgrass [8, 16]: 0
Plant response rating, Barnyardgrass [8, 17]: 0
Plant response rating, Barnyardgrass [8, 18]: 0
Plant response rating, Ducksalad [9, 15]: 0
Plant response rating, Ducksalad [9, 16]: 0
Plant response rating, Ducksalad [9, 17]: 0
Plant response rating, Ducksalad [9, 18]: 0
Plant response rating, Rice (rice (Oryza sativa); [15]): 0
Plant response rating, Rice (rice (Oryza sativa); [16]): 0
Plant response rating, Rice (rice (Oryza sativa); [17]): 0
Plant response rating, Rice (rice (Oryza sativa); [18]): 0
Plant response rating, Sedge, Umbrella [10, 15]: 0
Plant response rating, Sedge, Umbrella [10, 16]: 0
Plant response rating, Sedge, Umbrella [10, 17]: 0
Plant response rating, Sedge, Umbrella [10, 18]: 0
